Data taken from patent publication US8163736B2, “Cytotoxic agents comprising new tomaymycin derivatives” (sanofi-aventis, priority 2006, dated 2012).

Legend:
Assay type in all cases: cell-based
[1] = system: A549; test: In vitro potency of tomaymycin derivatives, WST-8 surviving fraction, A549; conditions: Homo sapiens, 96 h; A549 cells, incubated 4 days at 37° C., WST-8 read at 450 nm
Description: (§1) Samples of free tomaymycin derivative or tomaymycin derivative conjugate are added to a 96-well flat bottomed tissue culture plate and titrated using serial dilutions ranging from 1×10^−12 M to 3×10^−7 M. Antigen positive tumor cells or antigen negative tumor cells are added to the wells in such a way that there are triplicate samples for each drug concentration for each cell line. The plates are incubated at 37° C. in an atmosphere of 5% CO2 for 4 days.
(§2) At the end of the incubation period, 20 μl of the tetrazolium reagent WST-8 (2-(2-methoxy-nitrophenyl)-3-(4-nitrophenyl)-5-(2,4-disulfophenyl)-2-tetrazolium, monosodium salt) is added to each well, and the plates are returned to the incubator for 2 hours. The absorbance in each well of the plates is then measured using the Molecular Devices plate reader at 450 nm. Surviving fraction of cells at each concentration of tomaymycin derivative or conjugate are plotted.

[2] = system: MCF7; test: In vitro potency of tomaymycin derivatives, WST-8 surviving fraction, MCF7; conditions: Homo sapiens, 96 h; MCF7 cells, incubated 4 days at 37° C., WST-8 read at 450 nm
Description: as §1, §2

[3] = system: KB; test: In vitro potency of tomaymycin derivatives, WST-8 surviving fraction, KB; conditions: Homo sapiens, 96 h; KB cells, incubated 4 days at 37° C., WST-8 read at 450 nm
Description: as §1, §2

In the case of `C/C=C1\C[C@H]2C=Nc3cc(OCc4cccc(COc5cc6c(cc5OC)C(=O)N5C/C(=C/C)C[C@H]5C=N6)c4)c(OC)cc3C(=O)N2C1` [Example 1, 8,8′-[1,3-benzenediylbis(methylenoxy)]-bis[(S)-2-eth-(E)-ylidene-7-methoxy-1,2,3,11a-tetrahydro-5H-pyrrolo[2,1-c][1,4]benzodiazepin-5-one]], the IC50 [1] is reported as less than 0.001 nM, the IC50 [2] is reported as less than 0.001 nM and the IC50 [3] is reported as less than 0.001 nM.
For `C/C=C1\C[C@H]2C=Nc3cc(OCc4cc(COc5cc6c(cc5OC)C(=O)N5C/C(=C/C)C[C@H]5C=N6)cc(OC)c4)c(OC)cc3C(=O)N2C1` [Example 2, 8,8′-[5-methoxy-1,3-benzenediylbis(methylenoxy)]-bis[(S)-2-eth-(E)-ylidene-7-methoxy-1,2,3,11a-tetrahydro-5H-pyrrolo[2,1-c][1,4]benzodiazepin-5-one]], the IC50 [1] was less than 0.001 nM, the IC50 [2] was less than 0.001 nM and the IC50 [3] was less than 0.001 nM.
Compound `C/C=C1\C[C@H]2C=Nc3cc(OCCC(C)CCOc4cc5c(cc4OC)C(=O)N4C/C(=C/C)C[C@H]4C=N5)c(OC)cc3C(=O)N2C1` [Example 5, 8,8′-[3-methyl-1,5-pentanediylbis(oxy)]-bis[(S)-2-eth-(E)-ylidene-7-methoxy-1,2,3,11a-tetrahydro-5H-pyrrolo[2,1-c][1,4]benzodiazepin-5-one]] has an IC50 [1] of 0.07 nM, an IC50 [2] of 0.1 nM and an IC50 [3] of 0.1 nM.
